These results are taken from publication PMC8119466, “A screen of FDA-approved drugs identifies inhibitors of protein tyrosine phosphatase 4A3 (PTP4A3 or PRL-3)” (Scientific Reports, 2021).

Read-outs that look alike come from different tables or passages of the source.

One series deals with T1, PTPRM (Homo sapiens, UniProt P28827).
T1 construct: purchased Eurofins PP260
As to the kind of experiment: PhosphataseProfiler (Eurofins) selectivity panel. In kind it is biochemical. The note with it: 25µM.

Another series addresses T2, PP1alpha (Homo sapiens, UniProt P62136).
T2 construct: purchased Eurofins PP260
As to the kind of experiment: PhosphataseProfiler (Eurofins) selectivity panel. In kind it is biochemical. The settings on record: 25µM.

The target of a further series is T3, PTPbeta (Homo sapiens, UniProt P23467).
T3 construct: purchased Eurofins PP260
As to the kind of experiment: PhosphataseProfiler (Eurofins) selectivity panel. The series is classed as biochemical. The settings on record: 25µM.

Series [1] concerns SW480 cells. The experiment in a line: Scratch (migration) assay, SW480. In kind it is cell-based, human. The settings on record: 24 h, 100 µM Salirasib or 25 µM Candesartan, vs DMSO. On the procedure: (§1) Cells were seeded into duplicate wells of a 48 well plates at a density of 2 × 10^5 cells per well for HEK293T or 4 × 10^5 for HCT116 and SW480. Cells were recovered overnight and were scratched using a p20 pipette tip the following day. Compounds were added at the concentrations indicated. Images were obtained immediately after the scratch and after a 24 h incubation with the drug on an Evos FL inverted microscope (ThermoFisher). The area within the scratch was calculated using ImageJ. The area migrated was measured as the difference in wound area at 0 h and 24 h and the percent change in migration was calculated by dividing the difference in wound area of treatment by the difference in wound area of the control.

In a further series the target is T4, ACP1 (LMPTP-B) (Homo sapiens, UniProt P24666).
T4 construct: purchased Eurofins PP260
As to the kind of experiment: PhosphataseProfiler (Eurofins) selectivity panel. In kind it is biochemical. The note with it: 25µM.

For series [2], the system named is SW480 cells. The experiment in a line: Click-IT Edu cell proliferation assay, SW480. In kind it is cell-based, human. The settings on record: 100 µM Salirasib or 25 µM Candesartan, 24 and 48 hr. On the procedure:
The cell proliferation assay was performed using the Click-IT Edu cell proliferation kit from (Thermo Fisher, Cat # C10419) according to the manufacturer’s protocol. Briefly, HEK293T, HCT116 and SW480 cells were plated in 6 well dishes at 4 × 10^5 cell seeding density and treated with DMSO, Candesartan and Salirasib at the indicated concentrations. Edu was added 2 h prior to collecting the cells at 24 h and 48 h time points and the assay was performed according to the instructions from the manual. Flow cytometry with AlexaFluor647 conjugated azide dye was used to determine the cellular proliferation and DAPI was used for the DNA content.

Another series addresses T5, PTP1B (Homo sapiens, UniProt P18031).
T5 construct: purchased Eurofins PP260
The experiment in a line: PhosphataseProfiler (Eurofins) selectivity panel. The series is classed as biochemical. The settings on record: 25µM.

The next series has as its target T6, recombinant PRL-3 (Homo sapiens, UniProt O75365).
T6 construct: 6xHis (N, cleaved yes); made in house; host or cells: E. coli One Shot BL21 Star
The experiment in a line: In vitro phosphatase assay (DiFMUP hydrolysis), PRL-3. The settings on record: for % Phosphatase Activity (compared to DMSO) PRL-3: FDA-approved drug screen; for IC50: DiFMUP at KM, read-out: Calculated IC50, PRL-3 phosphatase activity; for mode of inhibition (Lineweaver-Burke analysis): versus DiFMUP substrate, reduce apparent Vmax, do not affect KM. In kind it is biochemical.

A further series deals with T7, PTPN22 (Homo sapiens, UniProt Q9Y2R2).
T7 construct: purchased Eurofins PP260
The experiment in a line: PhosphataseProfiler (Eurofins) selectivity panel. The note with it: PTPN22, 25µM. The series is classed as biochemical.

A further series addresses T8, VHR (Homo sapiens, UniProt P51452).
T8 construct: purchased Eurofins PP260
As to the kind of experiment: PhosphataseProfiler (Eurofins) selectivity panel. In kind it is biochemical. The note with it: 25µM.

In a further series the target is T9, recombinant PRL-2 (Homo sapiens, UniProt Q12974).
T9 construct: 6xHis (N, cleaved yes); made in house; host or cells: E. coli One Shot BL21 Star
T9 sequence (Q12974 1-167): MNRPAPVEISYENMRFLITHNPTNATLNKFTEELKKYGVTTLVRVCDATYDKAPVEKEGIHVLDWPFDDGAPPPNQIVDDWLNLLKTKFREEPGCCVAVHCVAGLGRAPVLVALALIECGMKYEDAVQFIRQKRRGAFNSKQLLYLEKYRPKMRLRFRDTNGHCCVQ
As to the kind of experiment: In vitro phosphatase assay (DiFMUP hydrolysis), PRL-2.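 On all read-outs here: PRL-2 activity read as DiFMUP hydrolysis after 20 min at room temperature with drug, enzyme first pre-reduced at 4 °C for 20 min.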 The series is classed as biochemical. The note with it: for % Phosphatase Activity (compared to DMSO) PRL-2: FDA-approved drug screen.

The next series deals with phospho-ERK. The experiment in a line: Western blot of phospho-ERK in HCT116 cells. The settings on record: HCT116, 24 hr; 100 µM Salirasib, 25 µM Candesartan. In kind it is cell-based, human. On the procedure:
Cells were lysed using Qproteome lysis buffer (Qiagen, Cat # 37901), then spun at 14,000 rpm for 10 min at 4 °C. Protein concentration in the supernatant was quantified using BCA assay (Thermo Scientific, Cat # 23227). 30 μg of protein was loaded into each lane of a TGX-stain-free pre-cast 4–20% SDS gel (Biorad, Cat # 4568094), total protein was quantified upon stain-free gel imaging, and protein was transferred onto PVDF membrane using the Trans-Blot Turbo Transfer System (BioRad, Cat # 1704150). Membranes were blocked with 5% milk in 1% TBST for 1 h, and a 1:1000 dilution of Anti-PRL-3 antibody (R&D Biosystems, Cat # MAB3219), 1:5000 phospho-ERK (Cell Signaling, Cat # 19101) or 1:5000 total ERK (Cell Signaling, Cat # 137F5) was added overnight. Following three washes in TBST, secondary HRP-conjugated antibody (GE, Cat # NA9340V) were added at a 1:5000 dilution for 1 h and membranes imaged using Clarity Western ECL Substrate. (BioRad, Cat # 1705061).

In the next series the target is T10, SHP2 (Homo sapiens, UniProt Q06124).
T10 construct: purchased Eurofins PP260
The experiment in a line: PhosphataseProfiler (Eurofins) selectivity panel. The series is classed as biochemical. The note with it: SHP2, 25µM.

The subject of series [3] is HEK293T cells. As to the kind of experiment: MTT viability assay. The settings on record: 16 h. The series is classed as cell-based, human. A general note: Formazan colour is commonly taken as a measure of viable cells.
Procedure: Cells were seeded into duplicate wells of a 96 well plate at a density of 2 × 10^4 cells per well and allowed to recover for 24 h. Cells were then treated with drug or DMSO at the indicated concentrations for 16 h. Following drug treatment, 10 μL of 5 mg/ml MTT (Sigma, M5655) was added to each well and cells were incubated for 4 h. Finally, media were removed, and the dye was solubilized in 100 μL of 0.1 M HCl in isopropanol. Absorbance was measured at 570 nm and 690 nm with final absorbance measurements as 570–690 nm.
In a further series the test system is HCT116 cells. The experiment in a line: Scratch (migration) assay, HCT116. In kind it is cell-based, human. The note with it: 24 h, 100 µM Salirasib or 25 µM Candesartan. The procedure: (§2) pENTR-PRL-3 (previously described[51]) was cloned into pLKO-CMV-puro using LR clonase (Thermofisher, 11,791,019) according to manufacturer’s directions. pLKO-CMV empty vector (EV) and pLKO-CMV:PRL-3 were transfected into HEK293T using Lipofectamine 3000 (ThermoFisher, L3000015) according to manufacturer’s protocol. Transfected cells were selected with 1 µg/mL puromycin in complete media to establish the cell line, then were maintained under 0.5 µg/mL puromycin in complete media. For PRL-3 knockdown, pLKO.1-scrambled shRNA and pLKO.1-PRL-3 shRNA[51] plasmids were transfected into HCT116 cells using Lipofectamine 3000 (Thermo Fisher, Cat # L3000015) according to the manufacturer’s directions. Cells were selected for 48 h in 1 µg/mL puromycin before use in assays.
as §1

The test system of series [4] is HEK293T cells. As to the kind of experiment: Scratch (migration) assay, HEK293T transfected with PRL-3 or empty vector. In kind it is cell-based, human. The note with it: compared to DMSO; for cellular migration in control cells: HEK293T empty vector, 24 h; for cellular migration in PRL-3 overexpressing cells: HEK293T transfected with PRL-3, 24 h. On the procedure:
as §2, §1

Where [5] appears, read: listed as Candesartan Cilexetil.

T6 sequence (O75365 whole entry): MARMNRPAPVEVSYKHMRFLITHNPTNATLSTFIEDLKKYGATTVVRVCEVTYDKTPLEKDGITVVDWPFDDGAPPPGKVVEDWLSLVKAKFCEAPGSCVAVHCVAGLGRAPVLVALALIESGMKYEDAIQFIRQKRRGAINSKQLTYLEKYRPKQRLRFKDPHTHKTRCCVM
T4 sequence (P24666 1-158 isoform P24666-2): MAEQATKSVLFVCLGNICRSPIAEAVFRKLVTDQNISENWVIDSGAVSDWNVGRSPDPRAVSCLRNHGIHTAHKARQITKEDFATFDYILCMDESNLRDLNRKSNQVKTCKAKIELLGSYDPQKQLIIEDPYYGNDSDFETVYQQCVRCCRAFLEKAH
T8 sequence (P51452 whole entry): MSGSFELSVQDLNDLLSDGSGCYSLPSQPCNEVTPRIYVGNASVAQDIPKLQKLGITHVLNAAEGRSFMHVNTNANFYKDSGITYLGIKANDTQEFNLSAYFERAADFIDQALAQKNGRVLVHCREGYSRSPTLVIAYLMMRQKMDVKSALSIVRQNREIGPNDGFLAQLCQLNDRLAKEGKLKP
T7 sequence (Q9Y2R2 whole entry): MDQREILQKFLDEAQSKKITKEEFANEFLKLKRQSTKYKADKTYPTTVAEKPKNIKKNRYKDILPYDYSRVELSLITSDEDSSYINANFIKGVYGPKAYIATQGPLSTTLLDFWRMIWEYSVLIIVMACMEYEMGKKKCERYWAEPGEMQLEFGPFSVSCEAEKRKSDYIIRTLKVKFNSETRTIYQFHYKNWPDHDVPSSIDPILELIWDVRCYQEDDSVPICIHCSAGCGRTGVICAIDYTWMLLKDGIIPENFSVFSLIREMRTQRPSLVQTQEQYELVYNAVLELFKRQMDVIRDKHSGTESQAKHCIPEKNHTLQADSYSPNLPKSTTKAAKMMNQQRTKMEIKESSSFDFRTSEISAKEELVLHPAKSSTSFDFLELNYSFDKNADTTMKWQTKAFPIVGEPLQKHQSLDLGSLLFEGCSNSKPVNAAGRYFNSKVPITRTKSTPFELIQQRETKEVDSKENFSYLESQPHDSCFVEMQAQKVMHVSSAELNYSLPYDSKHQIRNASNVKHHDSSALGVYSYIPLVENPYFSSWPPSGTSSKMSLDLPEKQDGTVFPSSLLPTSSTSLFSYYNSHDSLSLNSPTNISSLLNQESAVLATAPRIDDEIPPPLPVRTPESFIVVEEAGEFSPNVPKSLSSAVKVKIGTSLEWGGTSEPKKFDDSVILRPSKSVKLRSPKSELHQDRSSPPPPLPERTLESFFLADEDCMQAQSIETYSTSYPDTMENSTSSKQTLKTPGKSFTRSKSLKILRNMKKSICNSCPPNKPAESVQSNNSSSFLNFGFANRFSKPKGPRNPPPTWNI
T1 sequence (P28827 21-1452): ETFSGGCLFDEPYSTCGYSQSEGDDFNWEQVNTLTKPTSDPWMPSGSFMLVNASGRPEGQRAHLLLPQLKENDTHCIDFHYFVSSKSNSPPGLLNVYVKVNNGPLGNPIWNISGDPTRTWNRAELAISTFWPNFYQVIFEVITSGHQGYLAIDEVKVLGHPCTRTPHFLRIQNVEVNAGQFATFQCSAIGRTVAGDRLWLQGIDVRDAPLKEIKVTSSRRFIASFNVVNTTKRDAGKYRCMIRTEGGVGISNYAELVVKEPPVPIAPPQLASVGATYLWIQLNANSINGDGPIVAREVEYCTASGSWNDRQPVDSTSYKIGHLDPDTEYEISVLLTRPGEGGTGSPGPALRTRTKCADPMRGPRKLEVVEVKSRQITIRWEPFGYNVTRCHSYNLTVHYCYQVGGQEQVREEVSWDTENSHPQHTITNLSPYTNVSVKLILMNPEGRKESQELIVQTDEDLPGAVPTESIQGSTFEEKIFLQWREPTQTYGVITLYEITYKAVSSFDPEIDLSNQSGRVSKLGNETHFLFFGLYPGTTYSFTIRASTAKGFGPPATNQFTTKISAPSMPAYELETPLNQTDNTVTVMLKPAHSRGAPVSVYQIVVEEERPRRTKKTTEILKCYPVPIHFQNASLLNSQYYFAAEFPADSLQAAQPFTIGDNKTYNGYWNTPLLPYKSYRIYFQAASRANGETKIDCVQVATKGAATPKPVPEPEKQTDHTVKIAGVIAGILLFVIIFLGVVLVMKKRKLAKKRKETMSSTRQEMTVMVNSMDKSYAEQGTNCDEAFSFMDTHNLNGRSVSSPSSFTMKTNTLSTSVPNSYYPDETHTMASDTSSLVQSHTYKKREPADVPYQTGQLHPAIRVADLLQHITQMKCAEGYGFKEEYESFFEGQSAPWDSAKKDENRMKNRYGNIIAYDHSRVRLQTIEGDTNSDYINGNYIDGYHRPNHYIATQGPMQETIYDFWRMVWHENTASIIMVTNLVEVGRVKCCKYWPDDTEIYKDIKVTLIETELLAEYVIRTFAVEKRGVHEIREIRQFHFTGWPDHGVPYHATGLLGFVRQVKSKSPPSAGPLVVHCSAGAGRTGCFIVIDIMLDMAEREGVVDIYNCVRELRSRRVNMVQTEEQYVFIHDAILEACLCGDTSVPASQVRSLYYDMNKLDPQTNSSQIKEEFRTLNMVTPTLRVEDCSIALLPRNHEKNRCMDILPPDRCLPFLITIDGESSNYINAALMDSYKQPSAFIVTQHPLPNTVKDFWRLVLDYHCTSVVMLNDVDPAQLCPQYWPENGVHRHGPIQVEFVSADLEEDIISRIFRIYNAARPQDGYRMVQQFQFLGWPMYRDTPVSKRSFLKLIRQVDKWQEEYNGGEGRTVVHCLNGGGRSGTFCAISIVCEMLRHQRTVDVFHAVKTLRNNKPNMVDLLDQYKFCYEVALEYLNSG
T5 sequence (P18031 whole entry): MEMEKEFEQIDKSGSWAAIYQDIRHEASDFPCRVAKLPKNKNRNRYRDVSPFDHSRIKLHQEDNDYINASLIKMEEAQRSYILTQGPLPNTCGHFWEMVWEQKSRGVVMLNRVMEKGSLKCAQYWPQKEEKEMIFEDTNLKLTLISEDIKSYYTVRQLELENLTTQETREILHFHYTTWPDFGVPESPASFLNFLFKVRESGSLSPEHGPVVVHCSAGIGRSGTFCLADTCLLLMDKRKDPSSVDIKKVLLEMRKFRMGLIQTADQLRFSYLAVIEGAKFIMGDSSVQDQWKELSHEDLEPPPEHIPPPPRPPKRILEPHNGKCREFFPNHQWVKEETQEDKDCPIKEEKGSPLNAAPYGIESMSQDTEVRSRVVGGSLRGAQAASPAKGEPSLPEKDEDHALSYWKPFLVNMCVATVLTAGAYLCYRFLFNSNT
T10 sequence (Q06124 whole entry): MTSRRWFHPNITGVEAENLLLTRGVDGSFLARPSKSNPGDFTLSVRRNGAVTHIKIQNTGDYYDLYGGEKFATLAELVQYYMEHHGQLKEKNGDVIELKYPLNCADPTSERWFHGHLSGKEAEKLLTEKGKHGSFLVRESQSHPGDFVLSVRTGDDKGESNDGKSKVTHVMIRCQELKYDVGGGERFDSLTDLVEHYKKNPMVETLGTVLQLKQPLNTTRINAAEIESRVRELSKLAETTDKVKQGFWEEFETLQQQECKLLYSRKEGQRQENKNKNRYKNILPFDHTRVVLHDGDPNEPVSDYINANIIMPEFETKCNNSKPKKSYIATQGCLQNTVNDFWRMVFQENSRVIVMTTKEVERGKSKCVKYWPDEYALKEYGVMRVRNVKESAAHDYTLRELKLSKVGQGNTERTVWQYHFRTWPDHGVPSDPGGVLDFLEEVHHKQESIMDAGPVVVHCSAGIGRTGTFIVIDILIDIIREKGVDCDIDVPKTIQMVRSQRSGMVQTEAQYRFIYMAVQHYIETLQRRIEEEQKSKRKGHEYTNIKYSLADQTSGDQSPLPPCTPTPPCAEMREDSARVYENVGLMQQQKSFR
T2 sequence (P62136 whole entry): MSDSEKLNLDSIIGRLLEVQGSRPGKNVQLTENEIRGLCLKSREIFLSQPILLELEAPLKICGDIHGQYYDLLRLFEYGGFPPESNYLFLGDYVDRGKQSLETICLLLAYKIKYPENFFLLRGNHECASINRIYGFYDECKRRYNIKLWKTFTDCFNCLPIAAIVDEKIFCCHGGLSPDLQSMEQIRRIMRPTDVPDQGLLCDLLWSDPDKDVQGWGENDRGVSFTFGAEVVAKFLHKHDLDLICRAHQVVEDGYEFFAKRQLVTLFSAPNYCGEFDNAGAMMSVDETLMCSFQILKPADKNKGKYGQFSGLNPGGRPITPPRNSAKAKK
Procedure for ACP1 (LMPTP-B): Briefly, protein was diluted in reaction buffer and allowed to incubate at 4 °C for 20 min to allow for full reduction of the active site. DiFMUP, drug, and protein were added, and plates were incubated for 20 min at room temperature. Fluorescence intensities were measured on a Cytation 5 plate reader (Biotek) at an EX:360 nm and EM:460 nm. […] Inhibition selectivity for PRLs over a panel of other phosphatases was determined using PhosphataseProfiler (Eurofins, Cat # PP260).
Procedure for PP1alpha: (§3) Inhibition selectivity for PRLs over a panel of other phosphatases was determined using PhosphataseProfiler (Eurofins, Cat # PP260).
Procedure for PTP1B: as §3
Procedure for PTPN22: as §3
Procedure for PTPRM: as §3
Procedure for PTPbeta: as §3
Procedure for SHP2: as §3
Procedure for VHR: as §3

The IC50 is the concentration that gives 50% inhibition. For the molecule `CCOc1nc2cccc(C(=O)O)c2n1Cc1ccc(-c2ccccc2-c2nnn[nH]2)cc1` [Candesartan], the “Percent Phosphatase Activity (compared to DMSO)” value (from here on “Percent Phosphatase Activity”) at PTPRM was determined as 107%; at PP1alpha it was 105%; on PTPbeta, 85%; on ACP1 (LMPTP-B) it was 113%; at PTP1B it was 109%; on PTPN22 it was 136%. The “Percent Phosphatase Activity” value on VHR amounted to 87%; on SHP2 it was 104%. In addition, the “inhibition of migration of SW480 cells” value with SW480 cells [1] is on record as more than 30%. Besides, the “cell cycle (EdU staining)” value with SW480 cells [2] is “did not significantly impact”. In addition, the “% Phosphatase Activity (compared to DMSO) PRL-3” value on recombinant PRL-3 was 82%; on recombinant PRL-3 (setting [5]), -3.55%. In addition, the IC50 on recombinant PRL-3 ([…] protein) was 28 ± 4 µM; on recombinant PRL-2 ([…] protein, DiFMUP at KM, read-out: Calculated IC50, PRL-2 phosphatase activity), 80 ± 15 µM. In addition, the “mode of inhibition (Lineweaver-Burke analysis)” value on recombinant PRL-3 is given as “non-competitive inhibitors”. Further, the entries for the “% Phosphatase Activity (compared to DMSO) PRL-2” value on recombinant PRL-2 and at recombinant PRL-2 (setting [5]) were 92% and 13%, respectively. The phospho-ERK levels entry in the series on phospho-ERK is “decreased phospho-ERK levels”. Besides, the “viability (MTT)” value is “viability dropped significantly” in the series on HEK293T cells [3] (100 µM) and “insignificant effect on viability” in the series on HEK293T cells [3] (up to 50 µM). Moreover, in the series with HCT116 cells, the “migration of HCT116 cells with PRL-3 knock-down (PRL-3 shRNA)” value is on record as “no additional impact on migration”. Further, the “inhibition of migration of HCT116 cells” value with HCT116 cells (vs DMSO) is more than 30%. The “cellular migration in control cells” value in the series on HEK293T cells [4] is “no corresponding reduction in migration”. For the same molecule, the “cellular migration in PRL-3 overexpressing cells” value in the series on HEK293T cells [4] is “significant inhibition of cellular migration”.

Usually inhibition stands for the drop in the measured response relative to a control, in per cent. As to `CC(C)=CCC/C(C)=C/CC/C(C)=C/CSc1ccccc1C(=O)O` [Salirasib], the “Percent Phosphatase Activity” value was found to be 111% on PTPRM; 104% on PP1alpha; 91% at PTPbeta; 106% at ACP1 (LMPTP-B); 114% on PTP1B; 129% on PTPN22. The figures for the “Percent Phosphatase Activity” value on VHR and on SHP2 were 97% and 103%, respectively. The inhibition at 100 µM in the series with SW480 cells [1] (Homo sapiens, SW480) is more than 30%; in the series with HCT116 cells (Homo sapiens, HCT-116, vs DMSO) it was more than 30%. In the series with SW480 cells [2], the “cell cycle (EdU staining)” value is listed as “did not significantly impact”. Moreover, the concentration for half-maximal inhibition (IC50) at recombinant PRL-3 (2.5 µM protein) was 27 ± 3 µM. At recombinant PRL-3, the “mode of inhibition (Lineweaver-Burke analysis)” value is “non-competitive inhibitors”. Moreover, the “% Phosphatase Activity (compared to DMSO) PRL-2” value on recombinant PRL-2 was 6%. For the same molecule, the phospho-ERK levels entry with phospho-ERK was “decreased phospho-ERK levels”. Also, the “viability (MTT)” value in the series on HEK293T cells [3] (drug doses 1 to 100 µM, normalized to 1% DMSO) was “no effect on the viability”. In addition, the “migration of HCT116 cells with PRL-3 knock-down (PRL-3 shRNA)” value with HCT116 cells is recorded as “significantly reduced migration”. The “cellular migration in control cells” value in the series on HEK293T cells [4] is recorded as “no corresponding reduction in migration”. Further, in the series on HEK293T cells [4], the “cellular migration in PRL-3 overexpressing cells” value is recorded as “significant inhibition of cellular migration”.
